This passage reports IC50, EC50 and AC50 results from ChEMBL document CHEMBL1201862, “PubChem BioAssay data set” (2004).

The target in assay [1] is T1, Intestinal-type alkaline phosphatase (Homo sapiens, UniProt P09923). Put plainly: inhibition of human intestinal alkaline phosphatase – biochemical, dose response (AID 488876). The assay is classed as functional.
Assay [2] has as its target T2, Alkaline phosphatase, tissue-nonspecific isozyme (Homo sapiens, UniProt P05186).
T2 sequence (P05186 whole entry): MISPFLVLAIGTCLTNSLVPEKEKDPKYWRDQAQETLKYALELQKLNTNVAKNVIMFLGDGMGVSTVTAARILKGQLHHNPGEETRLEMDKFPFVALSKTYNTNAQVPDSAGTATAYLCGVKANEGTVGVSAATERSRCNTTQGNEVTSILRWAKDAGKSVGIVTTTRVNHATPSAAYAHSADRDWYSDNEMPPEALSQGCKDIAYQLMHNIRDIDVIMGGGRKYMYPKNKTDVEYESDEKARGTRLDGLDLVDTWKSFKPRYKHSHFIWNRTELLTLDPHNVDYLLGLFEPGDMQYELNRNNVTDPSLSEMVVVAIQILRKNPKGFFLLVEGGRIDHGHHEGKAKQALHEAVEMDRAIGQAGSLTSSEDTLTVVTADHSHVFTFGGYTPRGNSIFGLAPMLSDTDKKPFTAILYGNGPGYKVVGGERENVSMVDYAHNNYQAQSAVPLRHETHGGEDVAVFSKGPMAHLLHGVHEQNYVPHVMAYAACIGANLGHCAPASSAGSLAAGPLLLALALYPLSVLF
Put plainly: TNAP enzyme activators, dose response, selectivity assay for mouse IAP activator project, biochemical, TNAP isozyme, mouse IAP uHTS hits (AID 488880). Type of assay: functional.

For assay [3], the target named is T3, Intestinal-type alkaline phosphatase (Mus musculus, UniProt P24822). Description: PubChem AID 488785. Type of assay: functional.
T3 sequence (P24822 whole entry): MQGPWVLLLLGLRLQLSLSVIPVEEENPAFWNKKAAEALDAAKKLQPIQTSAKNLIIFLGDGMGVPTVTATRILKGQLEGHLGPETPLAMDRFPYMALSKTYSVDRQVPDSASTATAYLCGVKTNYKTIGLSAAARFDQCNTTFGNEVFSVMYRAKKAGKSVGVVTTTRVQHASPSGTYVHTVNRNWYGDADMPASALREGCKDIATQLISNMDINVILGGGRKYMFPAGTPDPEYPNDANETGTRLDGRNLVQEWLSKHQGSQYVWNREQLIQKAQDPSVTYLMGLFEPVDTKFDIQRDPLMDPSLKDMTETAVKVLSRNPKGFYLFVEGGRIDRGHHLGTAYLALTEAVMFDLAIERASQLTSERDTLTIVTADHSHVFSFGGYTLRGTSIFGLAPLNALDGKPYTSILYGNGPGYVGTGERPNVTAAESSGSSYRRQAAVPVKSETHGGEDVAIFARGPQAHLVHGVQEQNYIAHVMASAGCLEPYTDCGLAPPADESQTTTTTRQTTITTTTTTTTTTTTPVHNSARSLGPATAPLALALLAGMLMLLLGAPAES
In assay [4] the target is DNA dC->dU-editing enzyme APOBEC-3A (Homo sapiens, UniProt P31941). Description: Dose Response confirmation of small molecule APOBEC3A DNA Deaminase Inhibitors via a fluorescence-based single-stranded DNA deaminase assay. [Related pubchem assays (depositor defined):AID493011, AID493024]. The assay is classed as functional.
Sequence of DNA dC->dU-editing enzyme APOBEC-3A (P31941 whole entry): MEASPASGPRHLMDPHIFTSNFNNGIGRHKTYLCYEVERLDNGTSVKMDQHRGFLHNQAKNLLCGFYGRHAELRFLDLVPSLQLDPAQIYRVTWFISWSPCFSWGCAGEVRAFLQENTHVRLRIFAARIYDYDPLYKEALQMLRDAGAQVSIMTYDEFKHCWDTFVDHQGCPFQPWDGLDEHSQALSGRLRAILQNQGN
Assay [5] has as its target Eukaryotic translation initiation factor 4H (Homo sapiens, UniProt Q15056). Put plainly: human eIF4H binding inhibitors, primary screen, translation initiation inhibitor project, biochemical, uHTS, fluorescence polarization (AID 2012).
The target in assay [6] is DNA dC->dU-editing enzyme APOBEC-3G (Homo sapiens, UniProt Q9HC16). The assay is classed as functional.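 Also: Dose-response counterscreen measuring inhibition of APOBEC3G DNA deaminase activity, run while confirming APOBEC3A inhibitors.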
Sequence of DNA dC->dU-editing enzyme APOBEC-3G (Q9HC16 whole entry): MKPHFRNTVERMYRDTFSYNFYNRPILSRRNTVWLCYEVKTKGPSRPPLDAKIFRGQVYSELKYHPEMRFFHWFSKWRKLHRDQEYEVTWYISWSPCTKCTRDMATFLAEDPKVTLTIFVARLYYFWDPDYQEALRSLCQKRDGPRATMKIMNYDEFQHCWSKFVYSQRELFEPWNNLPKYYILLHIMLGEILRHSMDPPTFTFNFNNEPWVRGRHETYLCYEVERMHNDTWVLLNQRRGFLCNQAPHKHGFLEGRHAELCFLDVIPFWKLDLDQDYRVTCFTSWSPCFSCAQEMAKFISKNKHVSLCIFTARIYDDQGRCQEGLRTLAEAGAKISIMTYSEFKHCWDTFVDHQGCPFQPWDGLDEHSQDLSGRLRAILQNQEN
The nature of assay [7]: insulin promoter down-regulators in MIN6 cells, imaging, high-content screening, mouse beta cells (AID 1628). The assay is classed as functional.
Assay [8] in a line: cytotoxicity in MIN6 insulinoma cells, dose response, cytotoxicity control, cell-based, mouse insulinoma (AID 2122).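 Also: confirmatory high-throughput counterscreen run to flag cytotoxic compounds; mouse MIN-6 beta cells carrying an insulin promoter eGFP reporter.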 The assay is classed as functional.
The target of assay [9] is Polyadenylate-binding protein 1 (Homo sapiens, UniProt P11940). Description: PABP poly(A) RNA binding inhibitors, primary screen, biochemical, fluorescence polarization, uHTS (AID 2014).
Sequence of Polyadenylate-binding protein 1 (P11940 whole entry): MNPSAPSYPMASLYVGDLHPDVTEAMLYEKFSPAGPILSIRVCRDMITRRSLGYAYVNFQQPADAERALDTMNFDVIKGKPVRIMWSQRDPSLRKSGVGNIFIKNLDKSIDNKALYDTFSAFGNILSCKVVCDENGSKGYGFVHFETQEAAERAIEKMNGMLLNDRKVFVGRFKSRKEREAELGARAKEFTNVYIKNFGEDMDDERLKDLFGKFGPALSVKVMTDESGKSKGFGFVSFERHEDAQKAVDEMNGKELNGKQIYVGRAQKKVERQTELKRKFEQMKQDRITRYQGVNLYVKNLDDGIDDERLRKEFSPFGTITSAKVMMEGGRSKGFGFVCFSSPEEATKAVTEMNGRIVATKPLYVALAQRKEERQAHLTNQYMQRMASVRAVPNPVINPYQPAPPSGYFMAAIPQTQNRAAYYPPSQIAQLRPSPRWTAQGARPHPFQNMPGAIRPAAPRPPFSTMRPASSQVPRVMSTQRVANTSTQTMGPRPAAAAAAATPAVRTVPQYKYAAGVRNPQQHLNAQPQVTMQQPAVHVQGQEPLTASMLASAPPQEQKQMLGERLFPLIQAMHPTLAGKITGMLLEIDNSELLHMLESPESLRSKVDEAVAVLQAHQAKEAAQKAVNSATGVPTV
A further assay relates to HEK293. Description: cells. To be noted: Homo sapiens.
The next assay addresses Tumor necrosis factor (Homo sapiens, UniProt P01375). Put plainly: TNFa-triggered NF-kB activation inhibitors, SAR follow-up, cell-based, revised (AID 2337). Type of assay: functional.
The nature of assay [10]: growth induction of Burl-1 ts yeast mutant, dose response, counter-screen for SUMOylation pathway inhibitor project, whole organism, S. cerevisiae, luminescence (AID 463199). The assay is classed as functional.
Assay [11] deals with T4, Replicative DNA helicase DnaB (Mycobacterium tuberculosis, UniProt P9WMR3).
T4 sequence (P9WMR3 whole entry): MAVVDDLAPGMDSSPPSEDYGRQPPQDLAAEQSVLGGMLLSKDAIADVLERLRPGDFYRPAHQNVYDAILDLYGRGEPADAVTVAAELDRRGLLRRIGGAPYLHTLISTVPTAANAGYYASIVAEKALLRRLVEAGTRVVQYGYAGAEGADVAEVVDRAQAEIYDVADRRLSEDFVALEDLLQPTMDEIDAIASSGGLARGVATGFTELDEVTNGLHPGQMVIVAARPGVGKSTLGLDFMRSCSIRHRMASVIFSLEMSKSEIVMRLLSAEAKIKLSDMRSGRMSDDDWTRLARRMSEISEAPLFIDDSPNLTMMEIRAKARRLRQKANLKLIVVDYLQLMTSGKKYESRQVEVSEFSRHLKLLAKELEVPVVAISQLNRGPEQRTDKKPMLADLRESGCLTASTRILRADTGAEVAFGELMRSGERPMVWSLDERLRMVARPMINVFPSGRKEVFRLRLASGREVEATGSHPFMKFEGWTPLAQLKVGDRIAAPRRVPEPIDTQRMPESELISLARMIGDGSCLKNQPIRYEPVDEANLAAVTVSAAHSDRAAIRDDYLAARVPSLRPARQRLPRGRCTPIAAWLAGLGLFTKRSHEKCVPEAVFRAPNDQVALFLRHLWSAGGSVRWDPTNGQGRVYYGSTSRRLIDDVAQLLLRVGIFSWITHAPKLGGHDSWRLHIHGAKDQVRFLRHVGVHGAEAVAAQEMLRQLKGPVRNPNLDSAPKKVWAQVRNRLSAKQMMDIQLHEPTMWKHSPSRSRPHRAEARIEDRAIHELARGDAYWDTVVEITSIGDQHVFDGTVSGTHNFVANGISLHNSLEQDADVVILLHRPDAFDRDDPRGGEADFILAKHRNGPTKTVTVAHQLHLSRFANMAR
Description: DnaB intein splicing inhibitors, dose response, biochemical, cell-free fluorescence (AID 449749). Type of assay: functional.

The next assay deals with T5, Protein RecA (Mycobacterium tuberculosis, UniProt P9WHJ3).
T5 sequence (P9WHJ3 whole entry): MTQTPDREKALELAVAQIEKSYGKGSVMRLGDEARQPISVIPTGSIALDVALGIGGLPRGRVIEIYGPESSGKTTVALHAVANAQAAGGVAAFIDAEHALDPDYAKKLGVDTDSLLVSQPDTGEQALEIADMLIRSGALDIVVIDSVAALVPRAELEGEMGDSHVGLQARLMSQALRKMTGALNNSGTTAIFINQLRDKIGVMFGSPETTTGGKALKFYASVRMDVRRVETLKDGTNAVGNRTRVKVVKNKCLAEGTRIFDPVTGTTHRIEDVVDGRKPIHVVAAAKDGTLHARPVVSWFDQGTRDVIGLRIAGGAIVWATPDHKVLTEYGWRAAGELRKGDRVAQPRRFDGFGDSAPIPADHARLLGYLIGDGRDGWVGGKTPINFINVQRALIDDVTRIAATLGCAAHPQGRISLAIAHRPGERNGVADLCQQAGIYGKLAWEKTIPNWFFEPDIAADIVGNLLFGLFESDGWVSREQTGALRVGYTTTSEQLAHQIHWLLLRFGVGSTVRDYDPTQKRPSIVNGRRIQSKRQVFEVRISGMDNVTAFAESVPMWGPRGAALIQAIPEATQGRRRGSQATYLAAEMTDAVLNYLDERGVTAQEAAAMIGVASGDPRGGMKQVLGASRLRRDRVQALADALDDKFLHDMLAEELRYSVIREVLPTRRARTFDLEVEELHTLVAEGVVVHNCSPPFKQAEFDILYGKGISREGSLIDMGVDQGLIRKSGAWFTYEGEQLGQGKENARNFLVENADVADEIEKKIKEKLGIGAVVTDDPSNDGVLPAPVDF
Put plainly: Fluorescence Cell-Free Homogeneous Dose Retest to Identify Inhibitors of RecA-Intein Splicing Activity. [Related pubchem assays (depositor defined):AID2097, AID2223, AID489010, AID492950]. The assay is classed as functional.

Assay [12] addresses Lysine-specific demethylase 4A (Homo sapiens, UniProt O75164). Description: JMJD2A histone demethylase inhibitors, dose response, selectivity assay for GASC-1 inhibitor project, biochemical, DELFIA europium, cherry-picked samples (AID 488840).
Assay [13] deals with Lysine-specific demethylase 4C (Homo sapiens, UniProt Q9H3R0). Put plainly: GASC-1 (JMJD2C) histone demethylase inhibitors, dose response, biochemical, DELFIA europium, cherry-picked samples (AID 488835). Type of assay: functional.
Sequence of Lysine-specific demethylase 4C (Q9H3R0 whole entry): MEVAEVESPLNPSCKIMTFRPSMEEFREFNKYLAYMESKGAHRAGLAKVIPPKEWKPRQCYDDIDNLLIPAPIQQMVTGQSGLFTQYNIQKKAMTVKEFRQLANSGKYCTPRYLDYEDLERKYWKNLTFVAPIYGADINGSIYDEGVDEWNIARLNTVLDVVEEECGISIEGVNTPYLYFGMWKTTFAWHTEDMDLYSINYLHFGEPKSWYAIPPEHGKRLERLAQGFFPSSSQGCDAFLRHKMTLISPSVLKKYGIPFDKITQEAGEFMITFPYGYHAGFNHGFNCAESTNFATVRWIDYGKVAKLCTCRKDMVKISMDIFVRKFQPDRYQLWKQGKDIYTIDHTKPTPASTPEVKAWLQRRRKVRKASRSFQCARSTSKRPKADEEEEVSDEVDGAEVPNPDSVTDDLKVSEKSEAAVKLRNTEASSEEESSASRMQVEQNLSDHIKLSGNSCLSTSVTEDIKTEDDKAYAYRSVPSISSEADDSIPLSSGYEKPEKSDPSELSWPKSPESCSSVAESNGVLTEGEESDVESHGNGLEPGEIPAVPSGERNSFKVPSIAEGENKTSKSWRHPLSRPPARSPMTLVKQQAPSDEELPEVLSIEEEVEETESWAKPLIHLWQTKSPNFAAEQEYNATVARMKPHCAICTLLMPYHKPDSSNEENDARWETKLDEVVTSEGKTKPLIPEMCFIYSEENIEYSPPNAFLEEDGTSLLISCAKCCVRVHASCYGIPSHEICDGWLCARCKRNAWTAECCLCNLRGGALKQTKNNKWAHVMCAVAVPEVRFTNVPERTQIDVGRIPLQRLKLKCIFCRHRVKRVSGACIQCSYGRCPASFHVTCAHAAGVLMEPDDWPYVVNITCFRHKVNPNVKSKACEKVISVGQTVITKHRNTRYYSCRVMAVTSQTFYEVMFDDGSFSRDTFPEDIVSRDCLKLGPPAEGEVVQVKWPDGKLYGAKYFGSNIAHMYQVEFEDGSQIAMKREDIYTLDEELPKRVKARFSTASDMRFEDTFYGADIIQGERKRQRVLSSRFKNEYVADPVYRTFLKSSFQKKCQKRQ
Assay [14] deals with T2, Alkaline phosphatase, tissue-nonspecific isozyme. Description: TNAP enzyme inhibition by screening hits, dose response, selectivity assay for mouse IAP inhibitor project, biochemical, human TNAP, uHTS hits (AID 488906). The assay is classed as functional.
A further assay addresses Large T antigen (Simian virus 40, UniProt P03070). The assay is classed as functional, Betapolyomavirus macacae.
The target in a further assay is T6, Cytochrome P450 1A2 (Homo sapiens, UniProt P05177).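 Also: PubChem cytochrome P450 panel assay, CYP1A2 panel member.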
T6 sequence (P05177 whole entry): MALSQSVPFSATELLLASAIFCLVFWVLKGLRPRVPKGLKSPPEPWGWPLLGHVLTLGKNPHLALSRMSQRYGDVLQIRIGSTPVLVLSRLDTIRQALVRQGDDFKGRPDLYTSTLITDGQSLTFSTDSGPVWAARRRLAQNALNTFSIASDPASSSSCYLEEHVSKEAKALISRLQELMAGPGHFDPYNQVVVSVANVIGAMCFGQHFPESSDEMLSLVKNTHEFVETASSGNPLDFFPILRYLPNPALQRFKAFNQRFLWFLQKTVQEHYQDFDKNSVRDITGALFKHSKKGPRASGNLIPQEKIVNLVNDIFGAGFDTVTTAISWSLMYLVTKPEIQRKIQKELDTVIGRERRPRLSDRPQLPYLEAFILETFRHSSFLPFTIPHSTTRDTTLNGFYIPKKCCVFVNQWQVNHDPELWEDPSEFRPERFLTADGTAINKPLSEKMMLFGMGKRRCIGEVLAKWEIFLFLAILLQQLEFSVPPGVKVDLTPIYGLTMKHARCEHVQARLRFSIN

In assay [15] the target is T1, Intestinal-type alkaline phosphatase. Description: Dose Response confirmation of uHTS hits from a small molecule inhibitors of human intestinal alkaline phosphatase via a luminescent assay. [Related pubchem assays (depositor defined):AID2544, AID2574]. The assay is classed as functional.
The target is the same in assay [16]. Description: activation of human intestinal alkaline phosphatase – biochemical, dose response (AID 488873). Type of assay: functional.
Assay [17] concerns the target T3, Intestinal-type alkaline phosphatase. Description: PubChem AID 488874. Type of assay: functional.
Assay [18] has as its target T2, Alkaline phosphatase, tissue-nonspecific isozyme. Put plainly: inhibition of tissue-nonspecific alkaline phosphatase – biochemical, dose response (AID 488882). The assay is classed as functional.
Assay [19] deals with T1, Intestinal-type alkaline phosphatase. Description: human IAP inhibitors, dose response, biochemical, luminescent, uHTS hits, set 2 (AID 488793). Type of assay: functional.

Calls of active or inactive are those of the source.

T1 sequence (P09923 whole entry): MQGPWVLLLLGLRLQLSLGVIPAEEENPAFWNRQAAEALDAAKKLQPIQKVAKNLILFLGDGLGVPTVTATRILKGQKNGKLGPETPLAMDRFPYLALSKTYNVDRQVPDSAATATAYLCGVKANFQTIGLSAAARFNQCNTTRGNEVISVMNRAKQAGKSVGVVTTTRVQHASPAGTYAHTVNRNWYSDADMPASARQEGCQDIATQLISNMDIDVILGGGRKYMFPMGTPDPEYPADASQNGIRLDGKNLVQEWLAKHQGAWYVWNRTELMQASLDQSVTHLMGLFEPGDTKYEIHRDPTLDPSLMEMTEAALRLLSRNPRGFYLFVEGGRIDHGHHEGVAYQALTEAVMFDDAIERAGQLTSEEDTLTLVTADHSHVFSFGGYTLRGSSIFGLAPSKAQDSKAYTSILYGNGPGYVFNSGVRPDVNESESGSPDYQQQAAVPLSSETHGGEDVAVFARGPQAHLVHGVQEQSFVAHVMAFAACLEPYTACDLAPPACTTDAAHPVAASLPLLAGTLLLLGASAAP
Sequence of Tumor necrosis factor (P01375 whole entry): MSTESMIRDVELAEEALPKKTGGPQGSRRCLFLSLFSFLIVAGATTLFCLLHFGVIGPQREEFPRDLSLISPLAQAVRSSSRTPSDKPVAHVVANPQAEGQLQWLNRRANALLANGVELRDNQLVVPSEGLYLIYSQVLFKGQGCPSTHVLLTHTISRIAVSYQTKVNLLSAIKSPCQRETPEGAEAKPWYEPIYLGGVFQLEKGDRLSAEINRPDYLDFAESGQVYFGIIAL
Sequence of Lysine-specific demethylase 4A (O75164 whole entry): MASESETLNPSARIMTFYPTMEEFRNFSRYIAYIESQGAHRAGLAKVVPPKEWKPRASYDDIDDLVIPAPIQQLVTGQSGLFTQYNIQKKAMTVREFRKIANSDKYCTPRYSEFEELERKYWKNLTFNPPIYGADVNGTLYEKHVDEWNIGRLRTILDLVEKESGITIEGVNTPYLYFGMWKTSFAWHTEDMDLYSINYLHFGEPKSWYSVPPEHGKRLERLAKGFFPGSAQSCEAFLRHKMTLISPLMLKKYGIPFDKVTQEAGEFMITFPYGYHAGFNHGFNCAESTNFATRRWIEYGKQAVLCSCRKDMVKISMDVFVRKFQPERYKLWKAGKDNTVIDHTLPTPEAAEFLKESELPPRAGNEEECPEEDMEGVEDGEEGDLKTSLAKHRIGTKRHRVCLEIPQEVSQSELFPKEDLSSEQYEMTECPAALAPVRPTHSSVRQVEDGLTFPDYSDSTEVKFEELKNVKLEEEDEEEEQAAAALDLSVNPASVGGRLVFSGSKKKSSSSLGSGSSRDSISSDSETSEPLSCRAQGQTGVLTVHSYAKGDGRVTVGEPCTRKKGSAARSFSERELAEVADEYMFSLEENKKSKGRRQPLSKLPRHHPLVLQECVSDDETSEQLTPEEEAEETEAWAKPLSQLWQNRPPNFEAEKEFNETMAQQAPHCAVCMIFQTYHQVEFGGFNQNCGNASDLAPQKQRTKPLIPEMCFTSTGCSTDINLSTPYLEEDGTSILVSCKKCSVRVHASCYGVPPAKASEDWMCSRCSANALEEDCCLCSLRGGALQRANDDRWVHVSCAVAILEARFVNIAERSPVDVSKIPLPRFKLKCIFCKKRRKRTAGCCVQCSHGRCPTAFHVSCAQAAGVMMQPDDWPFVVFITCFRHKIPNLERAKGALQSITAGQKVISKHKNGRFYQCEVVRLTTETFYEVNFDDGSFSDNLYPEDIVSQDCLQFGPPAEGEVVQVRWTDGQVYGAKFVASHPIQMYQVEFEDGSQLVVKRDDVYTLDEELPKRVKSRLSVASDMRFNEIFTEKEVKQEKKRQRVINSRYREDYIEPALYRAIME

For the compound `N#Cc1cccc(NC(=O)CCNS(=O)(=O)c2ccc3nc(O)oc3c2)c1`, the IC50 in [1] was > 100 µM (inactive); in assay [3] it was 21.7 µM (active). In addition, the EC50 in [2] is > 100 µM (inactive).

As to `CCCCCn1ccc(=N)cc1`, the IC50 was 1.3 µM (active) in assay [4]; > 100 µM (inactive) in [5]; 1.92 µM (active) in assay [6]; 3.31 µM (active) in [7]; 2.58 µM (active) in assay [8]; 2.73 µM (active) in [9].

Regarding `CC(=O)c1ccc(N2CCN(S(=O)(=O)c3ccc4c(c3)CCN4C(=O)C3CC3)CC2)cc1`, the IC50 with HEK293 is > 20 µM (inactive); at Tumor necrosis factor, 16.6 µM (active).

For `COc1ccc2[nH]cc(C(=O)C(=O)N3CCCCC3)c2c1`, the concentration at half-maximal activity (AC50) in [10] was 93.6 µM (active).

Consider `O=c1[nH]cc(/N=C/c2cc(Cl)cc(Cl)c2O)c(=O)[nH]1`, for which the half-maximal activity concentration (AC50) in assay [11] was 4.92 µM (active); in [12] it was 18.1 µM (active); in [13] it was 0.749 µM (active). The half-maximal effective concentration (EC50) at Protein RecA is 4.14 µM (active).

Turning to `N#C/C(=C\c1ccc(O)c(O)c1)C(=O)c1ccc(O)c(O)c1`, the IC50 in assay [14] was > 100 µM (inactive); on Large T antigen it was 0.82 µM (active); in assay [15], 4.41 µM (active); in assay [17] it was 0.259 µM (active); in assay [3], 7.13 µM (active); in [18] it was 9.49 µM (active). In [19], the IC50 is 2.68 µM (active). For the same compound, the concentration at half-maximal activity (AC50) at Cytochrome P450 1A2 was 31.6 µM (inconclusive). Further, the EC50 in assay [16] is 6.36 µM (active).
